In PubChem BioAssay (NCI):
Values joined by “and” are separate entries in the source; they are usually repeats but may differ in a detail not shown here. Identical values can stand only once.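 1) Cells in 96-well plates. 2) Compound, 48 h, 5 concentrations. 3) Linear interpolation between surrounding doses. 4) Unreached endpoint = highest concentration. GI50 = concentration required for 50% inhibition of growth. TGI denotes the concentration required for complete inhibition of growth.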

Tests used:
Assay in all cases: growth of human tumour cells (NCI), 48 h
[1] = tested on: OVCAR-3 ovarian
[2] = tested on: SK-MEL-5 melanoma
[3] = tested on: TK-10 renal
[4] = tested on: SW-620 colon
[5] = tested on: SF-295 CNS
[6] = tested on: 786-0 renal
[7] = tested on: SK-MEL-28 melanoma
[8] = tested on: MDA-MB-435
[9] = tested on: SF-268 CNS
[10] = tested on: CCRF-CEM leukemia

Compound	GI50 [1]	TGI [1]	GI50 [2]	TGI [2]	GI50 [3]	TGI [3]	GI50 [4]	TGI [4]	GI50 [5]	TGI [5]	GI50 [6]	TGI [6]	GI50 [7]	TGI [7]	GI50 [8]	TGI [8]	GI50 [9]	TGI [9]	GI50 [10]	TGI [10]
O=C1c2cccc3cccc(c23)C(=O)N1CCCCCN1CCN(CCCCCOc2ccc(-c3nc4ccc(N5CCOCC5)cc4[nH]3)cc2)CC1	6.07 µM	11.2 µM	6.43 µM	19.9 µM	8.24 µM	14.8 µM	1.83 µM	4.21 µM	8.04 µM	25.4 µM	22.9 µM	51.3 µM	13 µM	25.7 µM	3.59 µM	13.2 µM	22.4 µM	43.2 µM	1.31 µM	8.97 µM
COc1ccc(-c2nsc3c2NC(=O)CC3c2cccc(OC)c2)cc1 (stereo not drawn)	0.705 µM	4.41 µM	0.445 µM	17.5 µM			0.412 µM	> 100 µM	1.54 µM	12.4 µM	12.5 µM	> 100 µM	10.7 µM	> 100 µM	0.282 µM	0.868 µM	4.53 µM	> 100 µM	2.08 µM	> 100 µM
CC1(C)N=C(N)N=C(N)N1c1ccc(CCCCc2ccc(Cl)c(S(=O)(=O)F)c2)c(Cl)c1	2.22 µM	15.1 µM	0.471 µM	11.8 µM	12.3 µM	48.8 µM	0.147 µM	15.4 µM	0.995 µM	10.6 µM	1.63 µM	> 39.7 µM	1.96 µM	16.5 µM	0.431 µM	18.7 µM	0.509 µM	15.9 µM	0.168 µM	8.65 µM
Cc1cc(N(CCCNc2ccnc3cc(Cl)ccc23)Cc2ccc3c(c2)OCO3)nc(N2CCOCC2)n1	0.359 µM	1.92 µM	0.169 µM	0.309 µM			0.306 µM	38.2 µM			0.254 µM	0.907 µM	0.254 µM	0.681 µM	0.37 µM	1.78 µM	0.304 µM	24.7 µM	0.38 µM	> 100 µM
Cn1c(=O)c(Oc2ccc(F)cc2)cc2cnc(NC3CCOCC3)nc21	> 25 µM	> 25 µM	> 25 µM	> 25 µM	> 25 µM	> 25 µM	> 25 µM	> 25 µM	> 25 µM	> 25 µM	> 25 µM	> 25 µM	> 25 µM	> 25 µM	> 25 µM	> 25 µM	> 25 µM	> 25 µM	> 25 µM	> 25 µM
CC1(Br)Cc2ccccc2C1=O (stereo not drawn)	4.11 µM	14.5 µM	2.75 µM	12.5 µM		29.8 µM	0.444 µM	2.69 µM		36.2 µM		6.39 µM		7.68 µM	2.14 µM	12.4 µM		20.2 µM	0.318 µM	6.75 µM and 1.82 µM
O=C(NNc1ccccc1)C(=O)NNc1ccccc1	17.7 µM	> 100 µM	10.8 µM	> 100 µM	0.919 µM	> 100 µM	7.3 µM	> 100 µM	2.1 µM	> 100 µM	53.9 µM	> 100 µM	58.1 µM	> 100 µM	1.84 µM	> 100 µM	1.63 µM	> 100 µM	0.637 µM	> 100 µM
CC1CCN(C(=O)OCc2nc3nc(Cl)nc(N4CCOCC4)c3[nH]2)CC1	0.438 µM	1.71 µM	1.74 µM	3.14 µM	1.82 µM	3.44 µM	0.551 µM	2.07 µM	3.76 µM	15.3 µM	1.29 µM	2.69 µM	1.56 µM	2.94 µM	0.835 µM	2.24 µM	1.42 µM	2.84 µM	0.29 µM	0.964 µM
CC(C)=CCc1cc2c(cc1O)OC[C@H]1c3cc4c(cc3O[C@@H]21)OCO4		> 100 µM		39.3 µM		> 100 µM		> 100 µM		> 100 µM		> 100 µM		> 100 µM		91.9 µM		> 100 µM		80.8 µM
CSc1nc(NC2OC(COC(C)=O)C(OC(C)=O)C(OC(C)=O)C2OC(C)=O)c(N=CC=Nc2c(NC3OC(COC(C)=O)C(OC(C)=O)C(OC(C)=O)C3OC(C)=O)nc(SC)n(C)c2=O)c(=O)n1C (stereo not drawn)	> 50 µM	> 50 µM	> 50 µM	> 100 µM	30.7 µM	50 µM and > 97.1 µM	> 50 µM	> 100 µM	> 50 µM	> 50 µM and 98.8 µM	16.7 µM	50 µM and > 80.6 µM	> 50 µM	> 100 µM	> 50 µM	> 100 µM	> 50 µM	> 100 µM	> 50 µM	> 100 µM
O=C1CCC/C=C\C[C@H]2C=CC(=O)/C2=C/C[C@H](C/C=C\CC(F)(F)F)O1	0.538 µM	1.75 µM	0.342 µM	0.78 µM	0.618 µM	2.17 µM	0.508 µM	2.05 µM	0.401 µM	1.13 µM	0.311 µM	0.677 µM	0.571 µM	2.25 µM	0.449 µM	1.42 µM	0.522 µM	2.12 µM	0.465 µM	1.71 µM
C=CCc1ccc(O)c(-c2ccc(O)c(CC=C)c2)c1	14.5 µM	30.6 µM	10.8 µM	23.4 µM	16 µM	33.9 µM	18.7 µM	36.9 µM	19.6 µM	44.7 µM	16.8 µM	33.5 µM	16.6 µM	31 µM	14.7 µM	31.5 µM	10.8 µM	28 µM	13.1 µM	> 100 µM
CN(C)C/C=C/C(=O)Nc1cc2c(Nc3ccc(F)c(Cl)c3)ncnc2cc1O[C@H]1CCOC1	0.232 µM and 0.229 µM	2.54 µM and > 4.93 µM	1.31 µM and 2.11 µM	2.75 µM and > 5.59 µM	< 0.01 µM and 0.00136 µM		1.38 µM and 1.5 µM	4.63 µM and > 7.89 µM	4.93 µM and 3.32 µM	20.9 µM and > 10 µM	2.3 µM and 1.79 µM	13.9 µM and > 10 µM	2.29 µM and 2.45 µM	6.8 µM and > 10 µM	0.603 µM and 0.882 µM	7.37 µM and > 5.68 µM	2.03 µM and 1.82 µM	8.58 µM and > 10 µM	1.79 µM and 1.53 µM	9.17 µM and > 7.56 µM
